The record followed here is patent US7316990B2, “High-strength, low viscosity herbicidal formulations of glyphosate” (Dow AgroSciences LLC, priority 2003, dated 2008).

The assay has as its system Five broadleaf species (IPOHE, CHEAL, EPHHL, ABUTH and CASOB). Nature of the assay: Greenhouse study of glyphosate salt solutions in mixture with a second herbicide (Colby's equation). The format is in vivo. As to conditions: for % Actual Control: 420 gae/ha glyphosate and/or 140 gae/ha second herbicide, 3 days after application, averaged over the 5 species; for Herbicide interaction with 2,4-D DMA and triclopyr TEA (actual versus expected control): Colby's equation. On the procedure:
In a further greenhouse study, the efficacy of a glyphosate DMA salt solution in mixture with DMA 4 (456 g/l 2,4-D acid equivalent in the form of the DMA salt) and Garlon 3A (360 g/l triclopyr acid equivalent in the form of the triethylamine [TEA] salt) respectively was compared with the efficacy of a glyphosate K salt solution in the same mixtures. The glyphosate salt solutions were prepared by diluting the glyphosate DMA salt concentrate and glyphosate K salt concentrate with the required amount of water to prepare solutions containing 480 g/l glyphosate acid equivalent each. Five broadleaf species (IPOHE, CHEAL, EPHHL, ABUTH and CASOB) were sprayed with the individual formulations as well as the mixtures listed in Table 6. The herbicide interactions were analyzed using Colby's equation. This equation for the expected mixture response is: Y1+2=Y1+Y2−(Y1Y2)100 where Y1+2 is the expected mixture response and y1 and y2 are the percent control values of the individual herbicides.

As to `CCN(CC)CC.O=C(O)COc1nc(Cl)c(Cl)cc1Cl` [triclopyr TEA salt], the “% Actual Control” value came out at 55.0%. For `O=C(O)CNCP(=O)([O-])O.[K+]` [glyphosate K salt], the “% Actual Control” value is 35.7%; the “Herbicide interaction with 2,4-D DMA and triclopyr TEA (actual versus expected control)” value was “antagonistic”. In the case of `CNC.O=C(O)CNCP(=O)(O)O` [glyphosate DMA salt], the “% Actual Control” value was 35.7%; the “Herbicide interaction with 2,4-D DMA and triclopyr TEA (actual versus expected control)” value was “no antagonism”. With `CNC.O=C(O)COc1ccc(Cl)cc1Cl` [2,4-D DMA salt], the “% Actual Control” value came out at 47.0%.
